Data published in patent US12077503B2, “Substituted cyclic amides and their use as herbicides” (FMC CORPORATION, priority 2015, dated 2024).

Legend:
Type in all cases: in vivo
[1] = system: ryegrass, Italian (Italian ryegrass, Lolium multiflorum); test: Test A preemergence; details: Lolium multiflorum, pre-emergence, 240 h, 0 to 100 scale where 0 is no effect and 100 is complete control, read-out: Ryegrass, Italian plant response rating; for pest or weed control at 31 g/ha: 31 g ai/ha, Preemergence; for pest or weed control at 125 g/ha: 125 g ai/ha, preemergence, approx. 10 d
Procedure, shortened: (§1)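 Treatment is preemergence as a directed soil spray after planting, or postemergence at the one- to two-leaf stage, with test chemical in a non-phytotoxic solvent mixture plus surfactant. Plants stay in the greenhouse about 10 d before visual injury scoring on a 0 to 100 scale versus untreated controls.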

Kochia (Kochia scoparia) [2] = test: Test A preemergence; details: Bassia scoparia, pre-emergence, 240 h, 0 to 100 scale where 0 is no effect and 100 is complete control, read-out: Kochia plant response rating; for pest or weed control at 31 g/ha: 31 g ai/ha, Preemergence; for pest or weed control at 125 g/ha: 125 g ai/ha, preemergence, approx. 10 d
Procedure, shortened: as §1

[3] = system: barnyardgrass (Echinochloa crus-galli); test: Test A preemergence; details: Echinochloa crus-galli, pre-emergence, 240 h, 0 to 100 scale where 0 is no effect and 100 is complete control, read-out: Barnyardgrass plant response rating; for pest or weed control at 31 g/ha: 31 g ai/ha, Preemergence; for pest or weed control at 125 g/ha: 125 g ai/ha, preemergence, approx. 10 d
Procedure, shortened: as §1

[4] = system: pigweed (Amaranthus retroflexus); test: Test A preemergence; details: Amaranthus retroflexus, pre-emergence, 240 h, 0 to 100 scale where 0 is no effect and 100 is complete control, read-out: Pigweed plant response rating; for pest or weed control at 31 g/ha: 31 g ai/ha, Preemergence; for pest or weed control at 125 g/ha: 125 g ai/ha, preemergence, approx. 10 d
[5] = system: giant foxtail (Setaria faberii); test: Test A preemergence; details: Setaria faberi, pre-emergence, 240 h, 0 to 100 scale where 0 is no effect and 100 is complete control, read-out: Foxtail, Giant plant response rating; for pest or weed control at 31 g/ha: 31 g ai/ha, Preemergence; for pest or weed control at 125 g/ha: 125 g ai/ha, preemergence, approx. 10 d
Procedure, shortened: as §1

[6] = system: ragweed (common ragweed, Ambrosia elatior); test: Test A preemergence; details: Ambrosia artemisiifolia, pre-emergence, 240 h, 0 to 100 scale where 0 is no effect and 100 is complete control, read-out: Ragweed plant response rating; for pest or weed control at 31 g/ha: 31 g ai/ha, Preemergence; for pest or weed control at 125 g/ha: 125 g ai/ha, preemergence, approx. 10 d
Procedure, shortened: as §1

[7] = system: ryegrass, Italian (Italian ryegrass, Lolium multiflorum); test: Test A postemergence; details: Lolium multiflorum, post-emergence, 240 h; for pest or weed control at 125 g/ha: 125 g ai/ha, postemergence, visual injury on 0 to 100 scale (0 no effect, 100 complete control), approx. 10 d, read-out: Ryegrass, Italian plant response rating; for pest or weed control at 31 g/ha: Postemergence, 31 g ai/ha, visual injury after approx. 10 d, 0 to 100 scale, 0 no effect, 100 complete control, read-out: Plant response rating, Ryegrass, Italian
Procedure, shortened: as §1

Kochia (Kochia scoparia) [8] = test: Test A postemergence; details: Bassia scoparia, post-emergence, 240 h; for pest or weed control at 125 g/ha: 125 g ai/ha, postemergence, visual injury on 0 to 100 scale (0 no effect, 100 complete control), approx. 10 d, read-out: Kochia plant response rating; for pest or weed control at 31 g/ha: Postemergence, 31 g ai/ha, visual injury after approx. 10 d, 0 to 100 scale, 0 no effect, 100 complete control, read-out: Plant response rating, Kochia
Procedure, shortened: as §1

[9] = system: blackgrass (Alopecurus myosuroides); test: Test A postemergence; details: Alopecurus myosuroides, post-emergence, 240 h; for pest or weed control at 125 g/ha: 125 g ai/ha, postemergence, visual injury on 0 to 100 scale (0 no effect, 100 complete control), approx. 10 d, read-out: Blackgrass plant response rating; for pest or weed control at 31 g/ha: Postemergence, 31 g ai/ha, visual injury after approx. 10 d, 0 to 100 scale, 0 no effect, 100 complete control, read-out: Plant response rating, Blackgrass
Procedure, shortened: as §1

[10] = system: barnyardgrass (Echinochloa crus-galli); test: Test A postemergence; details: Echinochloa crus-galli, post-emergence, 240 h; for pest or weed control at 125 g/ha: 125 g ai/ha, postemergence, visual injury on 0 to 100 scale (0 no effect, 100 complete control), approx. 10 d, read-out: Barnyardgrass plant response rating; for pest or weed control at 31 g/ha: Postemergence, 31 g ai/ha, visual injury after approx. 10 d, 0 to 100 scale, 0 no effect, 100 complete control, read-out: Plant response rating, Barnyardgrass
Procedure, shortened: as §1

corn (Zea mays) = test: Test A postemergence; details: Zea mays, post-emergence, 240 h; for plant injury at 125 g/ha: 125 g ai/ha, postemergence, visual injury on 0 to 100 scale (0 no effect, 100 complete control), approx. 10 d, read-out: Corn plant response rating; for Corn plant response rating (crop injury, 0 = no effect, 100 = complete kill) at 31 g/ha: Postemergence, 31 g ai/ha, visual injury after approx. 10 d, 0 to 100 scale, 100 complete control
Procedure, shortened: as §1

[11] = system: pigweed (Amaranthus retroflexus); test: Test A postemergence; details: Amaranthus retroflexus, post-emergence, 240 h; for pest or weed control at 125 g/ha: 125 g ai/ha, postemergence, visual injury on 0 to 100 scale (0 no effect, 100 complete control), approx. 10 d, read-out: Pigweed plant response rating; for pest or weed control at 31 g/ha: Postemergence, 31 g ai/ha, visual injury after approx. 10 d, 0 to 100 scale, 0 no effect, 100 complete control, read-out: Plant response rating, Pigweed
Procedure, shortened: as §1

[12] = system: wheat (Triticum aestivum); test: Test A postemergence; details: Triticum aestivum, post-emergence, 240 h; for plant injury at 125 g/ha: 125 g ai/ha, postemergence, visual injury on 0 to 100 scale (0 no effect, 100 complete control), approx. 10 d, read-out: Wheat plant response rating; for plant injury at 31 g/ha: Postemergence, 31 g ai/ha, visual injury after approx. 10 d, 0 to 100 scale, 0 no effect, 100 complete control, read-out: Plant response rating, Wheat
Procedure, shortened: as §1

[13] = system: giant foxtail (Setaria faberii); test: Test A postemergence; details: Setaria faberi, post-emergence, 240 h; for pest or weed control at 125 g/ha: 125 g ai/ha, postemergence, visual injury on 0 to 100 scale (0 no effect, 100 complete control), approx. 10 d, read-out: Foxtail, Giant plant response rating; for pest or weed control at 31 g/ha: Postemergence, 31 g ai/ha, visual injury after approx. 10 d, 0 to 100 scale, 0 no effect, 100 complete control, read-out: Plant response rating, Foxtail, Giant
Procedure, shortened: as §1

[14] = system: ragweed (common ragweed, Ambrosia elatior); test: Test A postemergence; details: Ambrosia artemisiifolia, post-emergence, 240 h; for pest or weed control at 125 g/ha: 125 g ai/ha, postemergence, visual injury on 0 to 100 scale (0 no effect, 100 complete control), approx. 10 d, read-out: Ragweed plant response rating; for pest or weed control at 31 g/ha: Postemergence, 31 g ai/ha, visual injury after approx. 10 d, 0 to 100 scale, 0 no effect, 100 complete control, read-out: Plant response rating, Ragweed
Procedure, shortened: as §1

[15] = system: Galium (catchweed bedstraw, Galium aparine); test: Test A postemergence; details: Galium, post-emergence, 240 h; for pest or weed control at 125 g/ha: 125 g ai/ha, postemergence, visual injury on 0 to 100 scale (0 no effect, 100 complete control), approx. 10 d, read-out: Galium plant response rating; for pest or weed control at 31 g/ha: Postemergence, 31 g ai/ha, visual injury after approx. 10 d, 0 to 100 scale, 0 no effect, 100 complete control, read-out: Plant response rating, Galium
Procedure, shortened: as §1

rice (Oryra sativa) = test: Test B flooded paddy test; details: Oryza sativa, 250 g ai/ha, Flood; 0 to 100 scale where 0 is no effect and 100 is complete control; read-out: Rice plant response rating
Procedure, shortened: (§2)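 Compound goes directly into floodwater once pots are flooded 3 cm above soil, targeting plants at two leaves; the water depth is then held for the test duration. Plants sit 13–15 d in a greenhouse and are rated visually, 100 denoting complete control.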

[16] = system: barnyardgrass (Echinochloa crus-galli); test: Test B flooded paddy test; details: Echinochloa crus-galli, 250 g ai/ha, Flood; 0 to 100 scale where 0 is no effect and 100 is complete control; read-out: Barnyardgrass plant response rating
Procedure, shortened: as §2

[17] = system: sedge, umbrella (small-flower umbrella sedge, Cyperus difformis); test: Test B flooded paddy test; details: Cyperus difformis, 250 g ai/ha, Flood; 0 to 100 scale where 0 is no effect and 100 is complete control; read-out: Sedge, Umbrella plant response rating
Procedure, shortened: as §2

[18] = system: ducksalad (Heteranthera limosa); test: Test B flooded paddy test; details: Heteranthera limosa, 250 g ai/ha, Flood; 0 to 100 scale where 0 is no effect and 100 is complete control; read-out: Ducksalad plant response rating
Procedure, shortened: as §2

Row | Compound | pest or weed control at 31 g/ha [1] [%] | pest or weed control at 125 g/ha [1] [%] | pest or weed control at 31 g/ha (Kochia (Kochia scoparia) [2]) [%] | pest or weed control at 125 g/ha (Kochia (Kochia scoparia) [2]) [%] | pest or weed control at 31 g/ha [3] [%] | pest or weed control at 125 g/ha [3] [%] | pest or weed control at 31 g/ha [4] [%] | pest or weed control at 125 g/ha [4] [%] | pest or weed control at 31 g/ha [5] [%] | pest or weed control at 125 g/ha [5] [%] | pest or weed control at 31 g/ha [6] [%] | pest or weed control at 125 g/ha [6] [%] | pest or weed control at 125 g/ha [7] [%] | pest or weed control at 31 g/ha [7] [%] | pest or weed control at 125 g/ha (Kochia (Kochia scoparia) [8]) [%] | pest or weed control at 31 g/ha (Kochia (Kochia scoparia) [8]) [%] | pest or weed control at 125 g/ha [9] [%] | pest or weed control at 31 g/ha [9] [%] | pest or weed control at 125 g/ha [10] [%] | pest or weed control at 31 g/ha [10] [%] | also measured
1 | Cc1ccc([C@H]2CN(C)C(=O)[C@@H]2C(=O)Nc2cnccc2C)cc1 [Compound 1070] | 0 | 0 | 0 | 0 | 0 | 0 | 0 | 0 | 0 | 60 | 0 | 0 | 0 | 0 | 0 | 0 | 0 | 0 | 0 | 0 | plant injury at 125 g/ha (corn (Zea mays)): 0%; Corn plant response rating (crop injury, 0 = no effect, 100 = complete kill) at 31 g/ha (corn (Zea mays)): 0%; pest or weed control at 125 g/ha [11]: 0%; pest or weed control at 31 g/ha [11]: 0%; plant injury at 125 g/ha [12]: 0%; plant injury at 31 g/ha [12]: 0%; pest or weed control at 125 g/ha [13]: 0%; pest or weed control at 31 g/ha [13]: 0%; pest or weed control at 125 g/ha [14]: 0%; pest or weed control at 31 g/ha [14]: 0%; pest or weed control at 125 g/ha [15]: 0%; pest or weed control at 31 g/ha [15]: 0%; pest or weed control at 250 g/ha (rice (Oryra sativa)): 0%; pest or weed control at 250 g/ha [16]: 0%; pest or weed control at 250 g/ha [17]: 0%; pest or weed control at 250 g/ha [18]: 80%
2 | COc1cccc([C@H]2CN(C)C(=O)[C@@H]2C(=O)Nc2cccc(F)c2F)c1F [Compound 1072] | 0 | 0 | 0 | 0 | 90 | 100 | 0 | 0 | 90 | 100 | 0 | 0 | 30 | 0 | 0 | 0 | 20 | 0 | 100 | 90 | plant injury at 125 g/ha (corn (Zea mays)): 0%; Corn plant response rating (crop injury, 0 = no effect, 100 = complete kill) at 31 g/ha (corn (Zea mays)): 0%; pest or weed control at 125 g/ha [11]: 0%; pest or weed control at 31 g/ha [11]: 0%; plant injury at 125 g/ha [12]: 20%; plant injury at 31 g/ha [12]: 0%; pest or weed control at 125 g/ha [13]: 90%; pest or weed control at 31 g/ha [13]: 80%; pest or weed control at 125 g/ha [14]: 0%; pest or weed control at 31 g/ha [14]: 0%; pest or weed control at 125 g/ha [15]: 0%; pest or weed control at 31 g/ha [15]: 0%; pest or weed control at 250 g/ha (rice (Oryra sativa)): 15%; pest or weed control at 250 g/ha [16]: 70%; pest or weed control at 250 g/ha [17]: 0%; pest or weed control at 250 g/ha [18]: 80%
